From ChEMBL document CHEMBL1201862, “PubChem BioAssay data set” (2004)
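A five-concentration, 48-hour dose response in 96-well plates underlies each endpoint, interpolated linearly between surrounding concentrations. Abbreviation: GI50, concentration required for 50% inhibition of growth.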 Calls of active or inactive are those of the source. No stated cut-off is given here; in the data, active = GI50 up to about 1.1 µM and inactive = higher.

Experiments:
Experiment in all cases: NCI tumour cell line growth inhibition, 48 h
[1] = system: KM-20L2
[2] = system: U-251
[3] = system: IGROV-1
[4] = system: HT-29
[5] = system: EKVX
[6] = system: OVCAR-8
[7] = system: HOP-92
[8] = system: 786-0
[9] = system: RPMI-8226
[10] = system: SW-620
[11] = system: COLO 205
[12] = system: M14
[13] = system: SNB-75
[14] = system: LOX IMVI
[15] = system: OVCAR-3
[16] = system: HCC 2998
[17] = system: RXF 393
[18] = system: MCF7
[19] = system: MDA-MB-435
[20] = system: NCI/ADR-RES

Compound	GI50 [1]	GI50 [2]	GI50 [3]	GI50 [4]	GI50 [5]	GI50 [6]	GI50 [7]	GI50 [8]	GI50 [9]	GI50 [10]	GI50 [11]	GI50 [12]	GI50 [13]	GI50 [14]	GI50 [15]	GI50 [16]	GI50 [17]	GI50 [18]	GI50 [19]	GI50 [20]
COc1ccccc1-c1cc(=O)c2cc(C)c(C)c(C(=O)O)c2o1	> 100 µM (inactive)	> 100 µM (inactive)	> 100 µM (inactive)	> 100 µM (inactive)	> 100 µM (inactive)	> 100 µM (inactive)	> 100 µM (inactive)	> 100 µM (inactive)	> 100 µM (inactive)	> 100 µM (inactive)	> 100 µM (inactive)	> 100 µM (inactive)	40.2 µM (inactive)	> 100 µM (inactive)	> 100 µM (inactive)	> 100 µM (inactive)	–	–	–	–
COc1cc(/C=C2\NC(=O)C3Cc4c(OC)c(C)c(OC)c(OC)c4C2N3C)c(OC)c(C)c1OC (configuration not stated)	> 100 µM (inactive)	> 100 µM (inactive)	> 100 µM (inactive)	> 100 µM (inactive)	> 100 µM (inactive)	> 100 µM (inactive)	> 100 µM (inactive)	> 100 µM (inactive)	–	> 10 µM (inactive)	> 100 µM (inactive)	> 100 µM (inactive)	> 100 µM (inactive)	> 100 µM (inactive)	> 100 µM (inactive)	> 100 µM (inactive)	85.3 µM (inactive)	–	–	–
CC1=C2C(=CC(C)(C)C2O)C(=O)C(C)(O)C12CC2 (configuration not stated)	0.00521 µM (active)	0.0059 µM (active)	0.0153 µM (active)	0.0028 µM (active)	0.0356 µM (active)	0.00948 µM (active)	0.0167 µM (active)	0.00759 µM (active)	–	0.00305 µM (active)	0.0138 µM (active)	0.0158 µM (active)	0.0123 µM (active)	0.00478 µM (active)	0.0112 µM (active)	0.00541 µM (active)	0.00752 µM (active)	–	–	–
COC1=CC(=O)C(Br)=CC1=O	33.3 µM (inactive)	–	17.3 µM (inactive)	19.2 µM (inactive)	25.1 µM (inactive)	26.9 µM (inactive)	15.9 µM (inactive)	18.6 µM (inactive)	21.6 µM (inactive)	23.2 µM (inactive)	16.7 µM (inactive)	19 µM (inactive)	15.2 µM (inactive)	18.2 µM (inactive)	–	36.3 µM (inactive)	18.2 µM (inactive)	–	–	–
CSc1nc2c(nc(N)n2C2OC(CO)C(O)C(O)C2O)c(=O)[nH]1 (configuration not stated)	> 100 µM (inactive)	> 100 µM (inactive)	> 100 µM (inactive)	> 100 µM (inactive)	> 100 µM (inactive)	> 100 µM (inactive)	> 100 µM (inactive)	> 100 µM (inactive)	–	> 100 µM (inactive)	> 100 µM (inactive)	> 100 µM (inactive)	> 100 µM (inactive)	> 100 µM (inactive)	> 100 µM (inactive)	> 100 µM (inactive)	> 100 µM (inactive)	–	–	–
O=C(c1nc2ccc(Cl)cc2nc1O)C(O)c1ccc2c(c1)OCO2 (configuration not stated)	74.5 µM (inactive)	> 100 µM (inactive)	> 100 µM (inactive)	> 100 µM (inactive)	> 100 µM (inactive)	> 100 µM (inactive)	> 100 µM (inactive)	> 100 µM (inactive)	7.4 µM (inactive)	> 100 µM (inactive)	> 100 µM (inactive)	> 100 µM (inactive)	> 100 µM (inactive)	98.9 µM (inactive)	–	> 100 µM (inactive)	> 100 µM (inactive)	–	–	–
O=C(O)C1(C(=O)O)CC1	> 100 µM (inactive)	> 100 µM (inactive)	> 100 µM (inactive)	–	> 100 µM (inactive)	> 100 µM (inactive)	–	> 100 µM (inactive)	> 100 µM (inactive)	> 100 µM (inactive)	> 100 µM (inactive)	54.7 µM (inactive)	> 100 µM (inactive)	–	> 100 µM (inactive)	> 100 µM (inactive)	40 µM (inactive)	–	–	–
Nc1c(C(=O)Nc2ccccc2O)[n+]([O-])c2ccccc2[n+]1[O-]	> 100 µM (inactive)	71.8 µM (inactive)	81.5 µM (inactive)	> 100 µM (inactive)	> 100 µM (inactive)	64.1 µM (inactive)	> 100 µM (inactive)	> 100 µM (inactive)	22.3 µM (inactive)	21 µM (inactive)	42.9 µM (inactive)	> 100 µM (inactive)	47.9 µM (inactive)	–	29.9 µM (inactive)	–	–	–	–	–
O=C(CSc1nnc(-c2ccc(/N=C\c3ccc(Cl)cc3)cc2)o1)Nc1cccc([N+](=O)[O-])c1	> 100 µM (inactive)	> 100 µM (inactive)	–	> 100 µM (inactive)	> 100 µM (inactive)	> 100 µM (inactive)	–	> 100 µM (inactive)	> 100 µM (inactive)	> 100 µM (inactive)	> 100 µM (inactive)	> 100 µM (inactive)	> 100 µM (inactive)	> 100 µM (inactive)	–	–	> 100 µM (inactive)	–	–	–
COc1cccc(N2C(=O)/C(=C/c3ccc(N(CCC#N)CCC#N)cc3)N=C2c2cc([N+](=O)[O-])ccc2Cl)c1	97.9 µM (inactive)	59.2 µM (inactive)	50.7 µM (inactive)	47 µM (inactive)	–	78.7 µM (inactive)	–	30.5 µM (inactive)	68.1 µM (inactive)	33.2 µM (inactive)	14.7 µM (inactive)	42.8 µM (inactive)	95.5 µM (inactive)	–	35.6 µM (inactive)	60.5 µM (inactive)	–	–	–	–
O=C(c1ccccc1)C(c1ccccc1)C1(O)C(=O)Nc2ccc(Br)cc21 (configuration not stated)	> 100 µM (inactive)	65 µM (inactive)	56.4 µM (inactive)	52 µM (inactive)	68.2 µM (inactive)	52.8 µM (inactive)	73.5 µM (inactive)	71.9 µM (inactive)	17.9 µM (inactive)	72.1 µM (inactive)	> 100 µM (inactive)	30.5 µM (inactive)	40.1 µM (inactive)	–	45.6 µM (inactive)	> 100 µM (inactive)	> 100 µM (inactive)	–	–	–
CC(=O)Oc1c(C)cc2c(c1C)C(C)(C)CN2C(=O)C(C)(C)C	–	> 100 µM (inactive)	> 100 µM (inactive)	33.1 µM (inactive)	> 100 µM (inactive)	> 100 µM (inactive)	20.1 µM (inactive)	> 100 µM (inactive)	53.8 µM (inactive)	> 100 µM (inactive)	58.1 µM (inactive)	65.9 µM (inactive)	0.504 µM (active)	> 100 µM (inactive)	25.2 µM (inactive)	> 100 µM (inactive)	84.9 µM (inactive)	> 100 µM (inactive)	77.8 µM (inactive)	45.3 µM (inactive)
CC1CCC2(O)C3(C)CC4(O)OC2(C1O)C1(O)C3(O)C(OC(=O)c2ccc[nH]2)C(O)(C(C)C)C41C (configuration not stated)	–	> 100 µM (inactive)	> 100 µM (inactive)	> 100 µM (inactive)	> 100 µM (inactive)	> 100 µM (inactive)	> 100 µM (inactive)	> 100 µM (inactive)	> 100 µM (inactive)	> 100 µM (inactive)	> 100 µM (inactive)	> 100 µM (inactive)	> 100 µM (inactive)	> 100 µM (inactive)	> 100 µM (inactive)	> 100 µM (inactive)	> 100 µM (inactive)	> 100 µM (inactive)	> 100 µM (inactive)	> 100 µM (inactive)
O=C(O)CCO/N=C1/C(=C2/C(=O)Nc3ccccc32)Nc2ccccc21	–	30.3 µM (inactive)	11.9 µM (inactive)	25 µM (inactive)	11.2 µM (inactive)	38.1 µM (inactive)	36.1 µM (inactive)	21.5 µM (inactive)	42.2 µM (inactive)	29.7 µM (inactive)	18.2 µM (inactive)	19.6 µM (inactive)	13.8 µM (inactive)	12.4 µM (inactive)	11.7 µM (inactive)	15.3 µM (inactive)	3.61 µM (inactive)	23.3 µM (inactive)	29.6 µM (inactive)	42.2 µM (inactive)
CN(C)C(=S)Nc1nnc(NC23CC4CC(CC(C4)C2)C3)s1.[O-][Cl+3]([O-])([O-])O	11.1 µM (inactive)	12.2 µM (inactive)	30.1 µM (inactive)	5.81 µM (inactive)	23 µM (inactive)	26.7 µM (inactive)	–	16.6 µM (inactive)	16 µM (inactive)	16.7 µM (inactive)	19.8 µM (inactive)	16 µM (inactive)	0.1 µM (active)	17.5 µM (inactive)	18.7 µM (inactive)	18.9 µM (inactive)	17.1 µM (inactive)	–	–	–
CC1=NN(C(=O)CC(=O)Nc2cccc(Cl)c2)C(=O)C1/N=N\c1ccc(S(=O)(=O)c2ccc(/N=N/C3C(=O)N(C(=O)CC(=O)Nc4cccc(Cl)c4)N=C3C)cc2)cc1 (configuration not stated)	–	29.4 µM (inactive)	> 100 µM (inactive)	> 100 µM (inactive)	> 100 µM (inactive)	> 100 µM (inactive)	> 100 µM (inactive)	> 100 µM (inactive)	> 100 µM (inactive)	> 100 µM (inactive)	> 100 µM (inactive)	> 100 µM (inactive)	> 100 µM (inactive)	> 100 µM (inactive)	> 100 µM (inactive)	> 100 µM (inactive)	> 100 µM (inactive)	> 100 µM (inactive)	> 100 µM (inactive)	> 100 µM (inactive)
